Assays:
Assay in all cases: Test B pre-/postemergence plant response
Format in all cases: in vivo
[1] = test system: giant foxtail (Setaria faberii)
Outline: (§1)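 Plants treated either at seeding (loam/sand soil) or postemergence at 2 to 18 cm height, using a surfactant-containing non-phytotoxic solvent formulation. Evaluation was visual after 13 to 15 days, 0 to 100 scale relative to controls.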

[2] = test system: velvetleaf (Abutilon theophrasti)
Outline: as §1

[3] = test system: kochia (Kochia scoparia)
Outline: as §1

[4] = test system: johnsongrass (Sorghum halepense)
Outline: as §1

[5] = test system: woolly cupgrass (Eriochloa villosa)
Outline: as §1

[6] = test system: pigweed (Amaranthus retroflexus)
Outline: as §1

[7] = test system: lambsquarters (Chenopodium album)
Outline: as §1

[8] = test system: yellow nutsedge (Cyperus esculentus)
Outline: as §1

[9] = test system: wheat (Triticum aestivum)
Outline: as §1

[10] = test system: large crabgrass (Digitaria sanguinalis)
Outline: as §1

[11] = test system: goosegrass (Eleusine indica)
Outline: as §1

[12] = test system: green foxtail (Setaria viridis)
Outline: as §1

[13] = test system: downy bromegrass (Bromus tectorum)
Outline: as §1

[14] = 31 g ai/ha, postemergence, scale 0 to 100, 0 is no effect, 100 is complete control
[15] = 62 g ai/ha, postemergence, 0 is no effect, 100 is complete control, 13 to 15 days
[16] = Postemergence, 125 g ai/ha, scale 0 to 100 (0 no effect, 100 complete control)
[17] = Postemergence, 250 g ai/ha, scale 0 to 100 (0 no effect, 100 complete control)
[18] = Preemergence, 31 g ai/ha, scale 0 to 100 (0 no effect, 100 complete control)
[19] = Preemergence, 62 g ai/ha, scale 0 to 100 (0 no effect, 100 complete control)
[20] = Preemergence, 125 g ai/ha, scale 0 to 100, 0 no effect, 100 complete control
[21] = Preemergence, 250 g ai/ha, 0 to 100 scale

Q: How did the “Plant response rating, Foxtail, Giant” value [1, 14] turn out when `COCCCn1c(-c2cc(F)cc(F)c2)ncc(C(=O)C2=C(O)CCCC2=O)c1=O` [Compound 120] was run?
A: 75

Q: What about the “Foxtail, Giant plant response rating (0 to 100 scale)” value [1, 15] of the same compound?
A: 80

Q: And the “Plant response rating, Foxtail, Giant” value [1, 16]?
A: 85

Q: What about the “Plant response rating, Foxtail, Giant” value [1, 17] of the same compound?
A: 98

Q: And the “Plant response rating, Foxtail, Giant” value [1, 18]?
A: 75

Q: And the “Plant response rating, Foxtail, Giant” value [1, 19]?
A: 98

Q: What about the “Plant response rating, Foxtail, Giant” value [1, 20] of the same compound?
A: 98

Q: What about the “Foxtail, Giant plant response rating” value [1, 21] of the same compound?
A: 100

Q: And the “Velvetleaf plant response rating (0 to 100 scale)” value [2, 15]?
A: 95

Q: And the “Plant response rating, Velvetleaf” value [2, 16]?
A: 98

Q: What about the “Plant response rating, Velvetleaf” value [2, 17] of the same compound?
A: 100

Q: What about the “Plant response rating, Velvetleaf” value [2, 18] of the same compound?
A: 80

Q: And the “Plant response rating, Velvetleaf” value [2, 19]?
A: 100

Q: And the “Plant response rating, Velvetleaf” value [2, 20]?
A: 100

Q: What about the “Velvetleaf plant response rating” value [2, 21] of the same compound?
A: 100

Q: What about the “Plant response rating, Kochia” value [3, 14] of the same compound?
A: 10

Q: What about the “Kochia plant response rating (0 to 100 scale)” value [3, 15] of the same compound?
A: 40

Q: And the “Plant response rating, Kochia” value [3, 16]?
A: 80

Q: And the “Plant response rating, Kochia” value [3, 17]?
A: 98

Q: And the “Plant response rating, Kochia” value [3, 18]?
A: 0

Q: What about the “Plant response rating, Kochia” value [3, 19] of the same compound?
A: 20

Q: What about the “Plant response rating, Kochia” value [3, 20] of the same compound?
A: 50

Q: What about the “Kochia plant response rating” value [3, 21] of the same compound?
A: 75

Q: And the “Plant response rating, Johnsongrass” value [4, 14]?
A: 15

Q: And the “Johnsongrass plant response rating (0 to 100 scale)” value [4, 15]?
A: 25

Q: And the “Plant response rating, Johnsongrass” value [4, 16]?
A: 75

Q: And the “Plant response rating, Johnsongrass” value [4, 17]?
A: 80

Q: What about the “Plant response rating, Johnsongrass” value [4, 18] of the same compound?
A: 35

Q: And the “Plant response rating, Johnsongrass” value [4, 19]?
A: 70

Q: And the “Plant response rating, Johnsongrass” value [4, 20]?
A: 80

Q: And the “Johnsongrass plant response rating” value [4, 21]?
A: 90

Q: And the “Plant response rating, Cupgrass, Woolly” value [5, 14]?
A: 70

Q: What about the “Cupgrass, Woolly plant response rating (0 to 100 scale)” value [5, 15] of the same compound?
A: 75

Q: And the “Plant response rating, Cupgrass, Woolly” value [5, 16]?
A: 100

Q: What about the “Plant response rating, Cupgrass, Woolly” value [5, 17] of the same compound?
A: 100

Q: What about the “Plant response rating, Cupgrass, Woolly” value [5, 18] of the same compound?
A: 50

Q: What about the “Plant response rating, Cupgrass, Woolly” value [5, 19] of the same compound?
A: 70

Q: And the “Plant response rating, Cupgrass, Woolly” value [5, 20]?
A: 75

Q: What about the “Cupgrass, Woolly plant response rating” value [5, 21] of the same compound?
A: 90

Q: What about the “Plant response rating, Pigweed” value [6, 14] of the same compound?
A: 95

Q: And the “Pigweed plant response rating (0 to 100 scale)” value [6, 15]?
A: 98

Q: What about the “Plant response rating, Pigweed” value [6, 16] of the same compound?
A: 100

Q: And the “Plant response rating, Pigweed” value [6, 17]?
A: 100

Q: What about the “Plant response rating, Pigweed” value [6, 18] of the same compound?
A: 95

Q: And the “Plant response rating, Pigweed” value [6, 19]?
A: 100

Q: What about the “Plant response rating, Pigweed” value [6, 20] of the same compound?
A: 100

Q: And the “Pigweed plant response rating” value [6, 21]?
A: 100

Q: What about the “Plant response rating, Lambsquarters” value [7, 14] of the same compound?
A: 80

Q: And the “Lambsquarters plant response rating (0 to 100 scale)” value [7, 15]?
A: 85

Q: What about the “Plant response rating, Lambsquarters” value [7, 16] of the same compound?
A: 98

Q: What about the “Plant response rating, Lambsquarters” value [7, 17] of the same compound?
A: 100

Q: What about the “Plant response rating, Lambsquarters” value [7, 18] of the same compound?
A: 100

Q: And the “Plant response rating, Lambsquarters” value [7, 19]?
A: 100

Q: What about the “Plant response rating, Lambsquarters” value [7, 20] of the same compound?
A: 100

Q: What about the “Lambsquarters plant response rating” value [7, 21] of the same compound?
A: 100

Q: And the “Plant response rating, Nutsedge, Yellow” value [8, 14]?
A: 5

Q: What about the “Nutsedge, Yellow plant response rating (0 to 100 scale)” value [8, 15] of the same compound?
A: 35

Q: And the “Plant response rating, Nutsedge, Yellow” value [8, 16]?
A: 65

Q: What about the “Plant response rating, Nutsedge, Yellow” value [8, 17] of the same compound?
A: 75

Q: What about the “Plant response rating, Nutsedge, Yellow” value [8, 18] of the same compound?
A: 70

Q: What about the “Plant response rating, Nutsedge, Yellow” value [8, 19] of the same compound?
A: 90

Q: What about the “Plant response rating, Nutsedge, Yellow” value [8, 20] of the same compound?
A: 98

Q: And the “Nutsedge, Yellow plant response rating” value [8, 21]?
A: 98

Q: What about the “Wheat plant response rating (0 to 100 scale)” value [9, 15] of the same compound?
A: 40

Q: And the “Plant response rating, Wheat” value [9, 16]?
A: 60

Q: What about the “Plant response rating, Wheat” value [9, 18] of the same compound?
A: 0

Q: And the “Plant response rating, Wheat” value [9, 19]?
A: 0

Q: What about the “Plant response rating, Wheat” value [9, 20] of the same compound?
A: 25

Q: What about the “Wheat plant response rating” value [9, 21] of the same compound?
A: 30

Q: And the “Plant response rating, Crabgrass, Large” value [10, 14]?
A: 80

Q: And the “Crabgrass, Large plant response rating (0 to 100 scale)” value [10, 15]?
A: 85

Q: What about the “Plant response rating, Crabgrass, Large” value [10, 16] of the same compound?
A: 95

Q: And the “Plant response rating, Crabgrass, Large” value [10, 17]?
A: 98

Q: And the “Plant response rating, Crabgrass, Large” value [10, 18]?
A: 98

Q: And the “Plant response rating, Crabgrass, Large” value [10, 19]?
A: 100

Q: What about the “Plant response rating, Crabgrass, Large” value [10, 20] of the same compound?
A: 100

Q: What about the “Crabgrass, Large plant response rating” value [10, 21] of the same compound?
A: 100

Q: What about the “Plant response rating, Goosegrass” value [11, 14] of the same compound?
A: 75

Q: And the “Goosegrass plant response rating (0 to 100 scale)” value [11, 15]?
A: 80

Q: And the “Plant response rating, Goosegrass” value [11, 16]?
A: 85

Q: What about the “Plant response rating, Goosegrass” value [11, 17] of the same compound?
A: 98

Q: What about the “Plant response rating, Goosegrass” value [11, 18] of the same compound?
A: 100

Q: What about the “Plant response rating, Goosegrass” value [11, 19] of the same compound?
A: 100

Q: What about the “Plant response rating, Goosegrass” value [11, 20] of the same compound?
A: 100

Q: What about the “Goosegrass plant response rating” value [11, 21] of the same compound?
A: 100

Q: And the “Plant response rating, Foxtail, Green” value [12, 14]?
A: 90

Q: And the “Foxtail, Green plant response rating (0 to 100 scale)” value [12, 15]?
A: 95

Q: What about the “Plant response rating, Foxtail, Green” value [12, 16] of the same compound?
A: 95

Q: And the “Plant response rating, Foxtail, Green” value [12, 17]?
A: 100

Q: What about the “Plant response rating, Foxtail, Green” value [12, 18] of the same compound?
A: 95

Q: And the “Plant response rating, Foxtail, Green” value [12, 19]?
A: 98

Q: What about the “Plant response rating, Foxtail, Green” value [12, 20] of the same compound?
A: 100

Q: And the “Foxtail, Green plant response rating” value [12, 21]?
A: 100

Q: What about the “Plant response rating, Bromegrass, Downy” value [13, 14] of the same compound?
A: 20

Q: What about the “Bromegrass, Downy plant response rating (0 to 100 scale)” value [13, 15] of the same compound?
A: 60

Q: What about the “Plant response rating, Bromegrass, Downy” value [13, 16] of the same compound?
A: 60

Q: What about the “Plant response rating, Bromegrass, Downy” value [13, 17] of the same compound?
A: 80

Q: And the “Plant response rating, Bromegrass, Downy” value [13, 18]?
A: 10

Q: What about the “Plant response rating, Bromegrass, Downy” value [13, 19] of the same compound?
A: 30

Q: And the “Plant response rating, Bromegrass, Downy” value [13, 20]?
A: 30

Q: What about the “Bromegrass, Downy plant response rating” value [13, 21] of the same compound?
A: 85
